Each compound was assayed against ATX (human His-tagged) (Homo sapiens (Human), UniProt Q13822) (assay: Human ATX enzyme inhibition assay (fluorescence quenching, MR121 substrate)). Conditions: 30 nM ATX, 1 μM MR121 substrate, 30° C., pH 8.0.
Assay type: biochemical
Method in brief: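 Fluorescence quenching assay with MR121/tryptophan-labelled substrate analogue in Tris-HCl buffer (140 mM NaCl, CaCl2, MgCl2, 0.01% Triton X-100, pH 8.0). Serially diluted compounds were preincubated 15 min at 30 °C with 30 nM ATX (final), then 1 µM substrate (final) added and incubated 15 min at 30 °C.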

`CC(C)c1ccccc1OCC(=O)N1C[C@@H]2[C@H](C1)[C@H]1CN(C(=O)c3ccc4[nH]nnc4c3)C[C@@H]21` [Example 1.009, 1-[(3aR,3bS,6aR,6bS)-5-(1H-benzotriazole-5-carbonyl)-octahydro-cyclobuta[1,2-c;3,4-c′]dipyrrol-2-yl]-2-(2-isopropyl-phenoxy)-ethanone] and `CCOc1cc(C(=O)N2C[C@@H]3[C@H](C2)[C@H]2CN(C(=O)c4ccc5[nH]nnc5c4)C[C@@H]32)cc2ccccc12` [Example 1.051, [(3aS,3bS,6aR,6bR)-5-(1H-benzotriazole-5-carbonyl)-octahydro-cyclobuta[1,2-c;3,4-c′]dipyrrol-2-yl]-(4-ethoxy-naphthalen-2-yl)-methanone] are within 1.5-fold of each other in IC50: 8 nM for the first, 7 nM for the second.

Compared with `O=C(c1cnc(OCC(F)(F)F)c(C2CCOCC2)c1)N1C[C@@H]2[C@H](C1)[C@H]1CN(C(=O)c3ccc4[nH]nnc4c3)C[C@@H]21` [Example 1.106, (1H-benzotriazol-5-yl)-{(3aS,3bS,6aR,6bR)-5-[5-(tetrahydro-pyran-4-yl)-6-(2,2,2-trifluoro-ethoxy)-pyridine-3-carbonyl]-octahydro-cyclobuta[1,2-c;3,4-c′]dipyrrol-2-yl}-methanone], `O=C(c1ccc2[nH]nnc2c1)N1C[C@@H]2[C@H](C1)[C@H]1CN(C(=O)c3cc(OCC4CC4)c(Cl)cn3)C[C@@H]21` [Example 1.086, (1H-benzotriazol-5-yl)-[(3aS,3bR,6aS,6bR)-5-(5-chloro-4-cyclopropylmethoxy-pyridine-2-carbonyl)-octahydro-cyclobuta[1,2-c;3,4-c′]dipyrrol-2-yl]-methanone] is 9.9-fold lower in IC50: 169 nM for the first, 17 nM for the second.

Compared with `Cc1ccc2ccc(C(=O)N3C[C@@H]4[C@H](C3)[C@H]3CN(C(=O)c5ccc6[nH]nnc6c5)C[C@@H]43)cc2c1` [Example 1.014, [(3aS,3bS,6aR,6bR)-5-(1H-benzotriazole-5-carbonyl)-octahydro-cyclobuta[1,2-c;3,4-c′]dipyrrol-2-yl]-(7-methyl-naphthalen-2-yl)-methanone], `O=C(c1cccc(-c2ccc(Cl)cc2)c1)N1C[C@@H]2[C@H](C1)[C@H]1CN(C(=O)c3ccc4[nH]nnc4c3)C[C@@H]21` [Example 1.089, (1H-benzotriazol-5-yl)-[(3aS,3bS,6aR,6bR)-5-(4′-chloro-biphenyl-3-carbonyl)-octahydro-cyclobuta[1,2-c;3,4-c′]dipyrrol-2-yl]-methanone] is 2.2-fold lower in IC50: 45 nM for the first, 20 nM for the second. The second is the more potent here.

Compared with `CC(C)Oc1cc(C(=O)N2C[C@@H]3[C@H]4CN(C(=O)c5ccc(S(N)(=O)=O)cc5)C[C@H]4[C@@H]3C2)cc2ccccc12` [Example 1.062, 4-[(3aS,3bS,6aR,6bR)-5-(4-isopropoxy-naphthalene-2-carbonyl)-octahydro-cyclobuta[1,2-c;3,4-c′]dipyrrole-2-carbonyl]benzenesulfonamide], `CC(C)Oc1cc(C(=O)N2C[C@@H]3[C@H](C2)[C@H]2CN(C(=O)[C@@H]4CCc5[nH]nnc5C4)C[C@@H]32)cc2ccccc12` [Example 1.059, (4-isopropoxy-naphthalen-2-yl)-[(3aR,3bS,6aR,6bS)-5-((R)-4,5,6,7-tetrahydro-1H-benzotriazole-5-carbonyl)-octahydro-cyclobuta[1,2-c;3,4-c′]dipyrrol-2-yl]-methanone] is 6.9-fold lower in IC50: 9 nM for the first, 1.3 nM for the second. The second is the more potent here.

Going from `COCCOc1cc(C(=O)N2C[C@@H]3[C@H]4CN(C(=O)c5ccc6[nH]nnc6c5)C[C@H]4[C@@H]3C2)nc2cc(C(F)(F)F)ccc12` [Example 1.079, (1H-benzotriazol-5-yl)-{(3aS,3bR,6aS,6bR)-5-[4-(2-methoxy-ethoxy)-7-trifluoromethyl-quinoline-2-carbonyl]-octahydro-cyclobuta[1,2-c;3,4-c′]dipyrrol-2-yl}-methanone] to `COCCOc1nc(C(=O)N2C[C@@H]3[C@H]4CN(C(=O)c5ccc6[nH]nnc6c5)C[C@H]4[C@@H]3C2)cc2ccccc12` [Example 1.057, [(3aR,3bS,6aR,6bS)-5-(1H-benzotriazole-5-carbonyl)-octahydro-cyclobuta[1,2-c;3,4-c′]dipyrrol-2-yl]-[1-(2-methoxy-ethoxy)-isoquinoline-3-yl]-methanone], the IC50 falls from 31.5 nM to 7.7 nM (4.1-fold).

Compared with `O=C(c1ccc(-c2ccc(Cl)cc2)nc1)N1C[C@@H]2[C@H](C1)[C@H]1CN(C(=O)[C@@H]3CCc4[nH]nnc4C3)C[C@@H]21` [Example 1.063, [6-(4-chloro-phenyl)-pyridin-3-yl]-[(3aR,3bS,6aR,6bS)-5-((R)-4,5,6,7-tetrahydro-1H-benzotriazole-5-carbonyl)-octahydro-cyclobuta[1,2-c;3,4-c′]dipyrrol-2-yl]-methanone], `O=C(c1ccc2[nH]nnc2c1)N1C[C@@H]2[C@H](C1)[C@H]1CN(C(=O)c3ccc(-c4ccc(Cl)cc4)cn3)C[C@@H]21` [Example 1.072, [(3aR,3bS,6aR,6bS)-5-(1H-benzotriazole-5-carbonyl)-octahydro-cyclobuta[1,2-c;3,4-c′]dipyrrol-2-yl]-[5-(4-chloro-phenyl)-pyridin-2-yl]-methanone] is 6-fold higher in IC50: 1 nM for the first, 6 nM for the second.

Compared with `COc1nc(C(=O)N2C[C@@H]3[C@H]4CN(C(=O)c5ccc6[nH]nnc6c5)C[C@H]4[C@@H]3C2)cc2ccccc12` [Example 1.046, [(3aR,3bS,6aR,6bS)-5-(1H-benzotriazole-5-carbonyl)-octahydro-cyclobuta[1,2-c;3,4-c′]dipyrrol-2-yl]-(1-methoxy-isoquinolin-3-yl)-methanone], `COc1cc(C(=O)N2C[C@@H]3[C@H]4CN(C(=O)c5ccc6[nH]nnc6c5)C[C@H]4[C@@H]3C2)nc2ccccc12` [Example 1.029, [(3aR,3bS,6aR,6bS)-5-(1H-benzotriazole-5-carbonyl)-octahydro-cyclobuta[1,2-c;3,4-c′]dipyrrol-2-yl]-(4-methoxy-quinolin-2-yl)-methanone] is 2.5-fold higher in IC50: 28 nM for the first, 70 nM for the second.

Going from `O=C(/C=C/c1ccc(OC(F)(F)F)cc1)N1C[C@@H]2[C@H](C1)[C@H]1CN(C(=O)[C@@H]3CCc4[nH]nnc4C3)C[C@@H]21` [Example 1.006, (E)-1-[(3aS,3bS,6aR,6bR)-5-((R)-4,5,6,7-tetrahydro-1H-benzotriazole-5-carbonyl)-octahydro-cyclobuta[1,2-c;3,4-c′]dipyrrol-2-yl]-3-(4-trifluoromethoxy-phenyl)-propenone] to `O=C(c1ccc(-c2ccc(F)cc2)cc1)N1C[C@@H]2[C@H](C1)[C@H]1CN(C(=O)c3ccc4[nH]nnc4c3)C[C@@H]21` [Example 1.002, [(3aS,3bS,6aR,6bR)-5-(1H-benzotriazole-5-carbonyl)-octahydro-cyclobuta[1,2-c;3,4-c′]dipyrrol-2-yl]-(4′-fluoro-biphenyl-4-yl)-methanone], the IC50 rises from 8 nM to 64 nM (8-fold).

Reference: US10849881B2, “Octahydro-cyclobuta[1,2-c;3,4-c′]dipyrrol-2-yl” (Hoffmann-La Roche Inc., priority 2013, dated 2020)
